From patent US12252522B2, “Myokines for treating cell proliferative and metabolic diseases and disorders” (Northwestern University, priority 2019, dated 2025)

B1: metrnl (protein, UniProt Q641Q3 46-311, looked up)
Meteorin-like protein: QYSSDRCSWKGSGLTHEAHRKEVEQVYLRCAAGAVEWMYPTGALIVNLRPNTFSPARHLTVCIRSFTDSSGANIYLEKTGELRLLVPDGDGRPGRVQCFGLEQGGLFVEATPQQDIGRRTTGFQYELVRRHRASDLHELSAPCRPCSDTEVLLAVCTSDFAVRGSIQQVTHEPERQDSAIHLRVSRLYRQKSRVFEPVPEGDGHWQGRVRTLLECGVRPGHGDFLFTGHMHFGEARLGCAPRFKDFQRMYRDAQERGLNPCEVGTD
notes: specific myokine

Key:
[1] = test system: pancreatic ductal carcinoma PDX model; assay: in vivo validation of CPT on pancreatic ductal carcinoma PDX model; conditions: co-treatment gemcitabine 10 mg/kg + 9-ING-41 40 mg/kg, i.p. 3x a week
[2] = test system: HCT116 colon cancer cells; assay: PWS imaging of HCT116 cells after chemotherapy, CPT and their combination; format: cell-based; conditions: celecoxib (CPT) added to oxaliplatin
cancer cells = assay: live cell PWS (D) and transcriptional heterogeneity of cancer cells surviving chemotherapy; format: cell-based
Source text: FIGS. 2A-2K. Four aspects of transcriptional heterogeneity regulation by chromatin D: (a) diversity (the relative dynamic range of expression; HT29 cells, 2445 genes), (b) intercellular heterogeneity, (c) intranetwork heterogeneity, and (d) amplification of changes in expression (ratio of changes in the expression rate of 800 significant genes induced by paclitaxel in A2780 ovarian cancer cells for high- vs. low-D cells). Predictions of a computational transcriptomics (multiscale analysis, MSA) model are shown as blue curves. (e) Chemotherapy leads to the survival of cancer cells with high D (middle-top panel; live cell PWS images of D; arrows: nuclei) and transcriptional (right-top) heterogeneity, while CPT agents (digoxin) decrease both (bottom). Left panels: MSA simulations of chromatin packing show a CPT-induced transition from a network to polymer-like packing. (f) Cells surviving chemotherapy treatment (paclitaxel (PAC); 48 h, A2780) have a larger global transcriptional space (single cell sequencing) while CPT (celecoxib) reduces it. (g) PWS images of HCT116 colon cancer cells after treatment with chemotherapy (oxaliplatin), CPT (celecoxib), and their combination. The addition of a CPT leads to >98% cancer cell death. […] Key: docetaxel (D), paclitaxel (P), oxaliplatin (0), digoxin (D), celecoxib (C), VPA (V), aspirin (A). […]

HT29 = assay: growth of HT29 cells treated with myostatin or metrnl and oxaliplatin; format: cell-based, human; conditions: for growth of colorectal cancer cell line: HT29, alone; for effect in combination with oxaliplatin: HT29, combination with oxaliplatin
Source text: FIGS. 6A-6C. Treatment of colon cancer cells lines with myokines and oxaliplatin. (a) HCT116 cells treated with myokines, oxaplatin, and combination of myokines and oxaplatin. (b) H29 cells treated with oxoplatin (ox), myostatin, and a combination of myostatin and oxaplatin. (c) H29 cells treated with oxoplatin (ox), metrnl, and a combination of metrnl and oxaplatin.
Next, we treated colorectal cancer cell lines HCT116 and HT29 with a myokine fraction and the specific myokines myostain and metrnl either by themselves or in combination with oxaliplatin. […] (See FIG. 6).

Molecule	growth of colorectal cancer cell line (HT29)	effect in combination with oxaliplatin (HT29)	also measured
Cn1cc(C2=C(c3coc4ccc(F)cc34)C(=O)NC2=O)c2cc3c(cc21)OCO3 [9-ING-41]			tumor volume relative to initial size [1]: < 4 % of the initial size
Cc1ccc(-c2cc(C(F)(F)F)nn2-c2ccc(S(N)(=O)=O)cc2)cc1 [celecoxib]			cancer cell death [2]: > 98%
C[C@H]1O[C@@H](O[C@H]2[C@@H](O)C[C@H](O[C@H]3[C@@H](O)C[C@H](O[C@H]4CC[C@@]5(C)[C@H](CC[C@@H]6[C@@H]5C[C@@H](O)[C@]5(C)[C@@H](C7=CC(=O)OC7)CC[C@]65O)C4)O[C@@H]3C)O[C@@H]2C)C[C@H](O)[C@@H]1O [digoxin]			chromatin packing scaling D (cancer cells): decrease both
myostatin [myostain]	reduced the growth	synergistic effect	
B1	reduced the growth	synergistic effect	
